The source of these data is patent US12612403B2, “Nitrogen-containing heterocyclic derivative inhibitor, and preparation method therefor and use thereof” (SHANGHAI HANSOH BIOMEDICAL CO., LTD., priority 2024, dated 2026).

One data set has as its target T1, PCSK9 protein (Homo sapiens, UniProt Q8NBP7).
T1 construct: purchased Sino biology (Sino Biological) 29698-H08H
The experiment in a line: Binding ability to PCSK9 protein (HTRF). The settings on record: PCSK9-His, Alexa Fluor 647 probe compound. On the procedure: 1. Experimental objective: To detect the action of compounds to bind PCSK9 protein by an HTRF method.
3. Experimental data processing method: Four-parameter log(inhibitor) vs. response—Variable slope (four parameters) in XLit was used to perform non-linear fitting of the compound concentration and the corresponding inhibition rate, and IC50 was calculated.

Data set [1] relates to PCSK9 secreted by HepG2 cells. The experiment in a line: Effect on the concentration of PCSK9 secreted by HepG2 cells (ELISA). The format is cell-based. The conditions noted are these: Homo sapiens, 48 hours, PCSK9 in culture medium by ELISA. On the procedure:
1. Experimental objective: To detect the inhibitory effect of the compounds on PCSK9.
2. Experimental method: • 1) HepG2 cell strain was cultured in the complete culture medium at 37° C., 5% CO2 to 70-90% confluence. • 2) The cells were digested and resuspended in the experimental culture medium, inoculated at 25,000 cells/well/200 μL in a 96-well cell culture plate, and cultured at 37° C. and 5% CO2 for 20-24 hours. • 3) The culture medium was removed from the cell culture plate, and the cell culture plate was washed once by adding 200 ul of the experimental culture medium to each well. • 4) Preparation of positive control compound and compound to be tested: the positive control compound and the compound to be tested were diluted on the compound plate. • 5) The diluted compound was added to the cell culture plate at 250 μL per well and incubated at 37° C. and 5% CO2 for 48 hours. • 6) The cell culture medium was collected at 200 μL per well and cryopreserved at −80° C. for later use. • 7) A sample of the cell culture medium was taken from the −80° C. cryopreservation condition, dissolved, vortexed, and centrifuged for later use. • 8) Preparation of standard curve: corresponding volumes of Dilution buffer were successively added to respective standard tubes, and in the order of the concentrations of 10, 5, 2.5, 1.25, 0.625, 0.313, 0.16, 0 ng/mL, the standard was diluted in series by taking the corresponding volume from the original tube or the last concentration tube. • 9) Preparation of washing liquid: 10x Wash buffer was diluted into 1x with Milli-Q for later use. • 10) According to the standard curve wells and sample wells set according to a plate map, 100 μL/well of the corresponding standards and culture medium samples were added to the wells, with 2 replicate wells. A self-adhesive seal was applied, the plate was placed on a plate shaker at room temperature, gently shaken, uniformly mixed, and incubated for 1 hour. • 11) The plate was placed on the plate washer, the washing liquid was set to 350 μL per well, and the plate was washed 4 times repeatedly. • 12) 100 μL/well of an HRP-conjugated detection antibody was added, a self-adhesive seal was applied, and the plate was placed on the plate shaker, well mixed uniformly, and incubated for 1 hour. • 13) The plate was placed on the plate washer, the washing liquid was set to 350 μL per well, and the plate was washed 4 times repeatedly. • 14) 100 μL/well of Substrate reagent was added, and the plate was placed in the dark, applied with a self-adhesive seal, placed on the plate shaker, well mixed uniformly, and incubated for 10-20 minutes. • 15) 100 μL of Stop solution (1N H2SO4) was added to each well and mixed uniformly. • 16) The optical density (OD) value in each well was measured in sequence at a wavelength of 450 nm by the microplate reader. Detection was carried out within 30 min after the reaction was stopped.
3. Experimental data processing method: After the OD values were read by the microplate reader, the OD value of the 0-concentration standard in the standard group was subtracted from the OD values of the standards, control group, and samples to obtain the actual OD values for these wells. A standard curve was plotted with Graphpad and the concentration of the sample was calculated. If the dilution was performed during the sample detection, the calculated sample concentration was necessarily multiplied by the corresponding dilution ratio in the final calculation, which was the actual concentration of the sample. Inhibition rate=(actual concentration in control−actual concentration in sample)/actual concentration in control*100. According to the inhibition rates corresponding to the different concentrations, IC50 was derived by Graphpad.

A short description of data set [2]: Pharmacokinetic determination in mice (PO 5 mg/kg, IV 1 mg/kg). Format: in vivo, C57BL/6J mice. The settings on record: male, C57BL/6J, mouse, plasma, C57 mice, PO administration, 5 mpk; for AUC(0-inf): read-out: Area under the curve AUC0-∞; for half-life: read-out: Half-life t1/2 (converted); for MRT: read-out: Mean residence time MRT; for Cmax: read-out: Plasma concentration Cmax; for Tmax: read-out: Time to peak tmax. On the procedure:
1. Experimental objective: C57BL/6J mice were used as test animals to study the pharmacokinetic behavior of the compounds of the present disclosure in mice (plasma) after oral and intravenous administration.
2.2 Test animals: C57 mice, male, purchased from Shanghai Bk Lab Animal Co., Ltd., with animal production license number (SCXK (Shanghai) 2013-0006 N0.311620400001794).
2.3 Drug preparation: Preparation of oral drug: 10% Solutol HS15
10 g of Solutol HS15 solid was weighed, dissolved in 90 mL of pure water, uniformly mixed, stirred, and ultrasonically treated to form a clear solution. The compound of the present disclosure was weighed and dissolved in this solution, uniformly shaken, and ultrasonically treated for 15 minutes to obtain a colorless clear solution with a concentration of 0.5 mg/mL. Preparation of intravenous drug: 5% DMSO+10% Solutol HS15+85% PBS, the compound of the present disclosure was weighed, 5% DMSO was first added on the basis of the proportion relative to the total volume of administration, and the mixture was vortexed and ultrasonically treated for 2 min until it was completely dissolved; 10% of Solutol HS15 was then added, and the mixture was vortexed and ultrasonically treated for 2 min until it was completely dissolved; and finally, 85% of PBS was added, and the mixture was vortexed, ultrasonically treated for 5 min, and filtered through a 0.22 um filter membrane to obtain a colorless and transparent clear solution with a concentration of 0.2 mg/mL.
2.4 Administration: 3 male C57 mice were fasted overnight and then respectively administered PO at a dose of 5 mg/kg and a volume of 10 mL/kg. 3 male C57 mice were fasted overnight and then respectively administered IV at a dose of 1 mg/kg and a volume of 5 mL/kg.
2.5 Sample collection: Before and after administration of mice, 0.04 mL of blood was collected from the orbit at 0.083 (iv), 0.25, 0.5, 1, 2, 4, 8, and 24 hours, and placed in EDTA-K2 test tubes, which was centrifuged at 6000 rpm at 4° C. for 6 min to separate plasma which was stored at −80° C.; and the […] were fed 4 h after administration.
2.6 Determination results: The final determination results were obtained by using an LCMS/MS method.
3. Experimental results: The main pharmacokinetic parameters were calculated using WinNonlin 6.1.

Molecules are shown by their SMILES.

T1 sequence (Q8NBP7 153-692): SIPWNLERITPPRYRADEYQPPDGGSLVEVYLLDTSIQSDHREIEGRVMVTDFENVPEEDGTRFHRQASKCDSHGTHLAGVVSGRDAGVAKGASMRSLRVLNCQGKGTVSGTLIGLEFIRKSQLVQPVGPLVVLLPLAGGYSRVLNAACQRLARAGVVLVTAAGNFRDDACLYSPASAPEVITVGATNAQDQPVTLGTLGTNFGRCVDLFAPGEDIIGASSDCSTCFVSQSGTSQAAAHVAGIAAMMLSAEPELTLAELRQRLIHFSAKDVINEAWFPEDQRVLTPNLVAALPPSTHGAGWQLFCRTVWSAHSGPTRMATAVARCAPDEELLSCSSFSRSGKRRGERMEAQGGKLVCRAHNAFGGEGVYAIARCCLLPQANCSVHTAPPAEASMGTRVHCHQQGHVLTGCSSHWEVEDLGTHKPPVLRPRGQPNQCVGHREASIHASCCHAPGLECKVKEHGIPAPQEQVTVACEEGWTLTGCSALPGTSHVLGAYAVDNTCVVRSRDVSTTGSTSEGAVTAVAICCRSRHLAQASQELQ

For the compound `N#Cc1cnc2c(c1)C(=O)N(c1ccc(N[C@H]3CC[C@H](Nc4nc5cc(C(F)(F)F)ccn5n4)C3)nc1)C2` [Example 65, 5-carbonyl-6-(6-(((1S,3S)-3-((7-(trifluoromethyl)-[1,2,4]triazolo[1,5-a]pyridin-2-yl)amino)cyclopentyl)amino)pyridin-3-yl)-6,7-dihydro-5H-pyrrolo[3,4-b]pyridine-3-carbonitrile], the IC50 on PCSK9 protein is 13.9 nM. In data set [1], 12800 nM corresponded to half-maximal inhibition (IC50). In addition, in data set [2], the AUC(0-inf) came out at 70000 ng·h/mL, the half-life was 4 h, the MRT is 5.8 h and the Cmax was 7870 ng/mL. Further, the Tmax in data set [2] amounted to 4 h.
Compound `Cc1cc2c(cn1)C(=O)N(c1ccc(N[C@H]3CC[C@H](Nc4nc5cc(C(F)(F)F)ccn5n4)C3)nc1)C2` [Example 89, 6-methyl-2-(6-(((1S,3S)-3-((7-(trifluoromethyl)-[1,2,4]triazolo[1,5-a]pyridin-2-yl)amino)cyclopentyl)amino)pyridin-3-yl)-1,2-dihydro-3H-pyrrolo[3,4-c]pyridin-3-one] yielded an IC50 on PCSK9 protein of 10.5 nM. In data set [1], the IC50 worked out at 4000 nM. In addition, in data set [2], the AUC(0-inf) worked out at 34300 ng·h/mL, the half-life was 2.7 h, the MRT is 3.1 h and the Cmax came to 10300 ng/mL. The Tmax in data set [2] came out at 0.25 h.
With `[2H]C1([2H])c2ncccc2C(=O)N1c1ccc(N[C@H]2CC[C@H](Nc3nc4cc(C(F)(F)F)ccn4n3)C2)nc1` [Example 114], at PCSK9 protein, the half-inhibitory concentration (IC50) is 8.9 nM. Further, in data set [1], inhibition was half-maximal at 14700 nM (IC50). Also, in data set [2], the AUC(0-inf) was 7230 ng·h/mL, the half-life was 3.1 h, the mean residence time MRT was determined as 3 h and the Cmax amounted to 2350 ng/mL. Besides, in data set [2], the Tmax turned out to be 0.5 h.
For `N#Cc1cnc2c(c1)C(=O)N(c1ccc(N[C@H]3CC[C@H](Nc4nc5cc(OC(F)F)ccn5n4)C3)nc1)C2` [Example 123], the IC50 on PCSK9 protein was found to be 11.5 nM. This compound registered an IC50 in data set [1] of 5200 nM. In data set [2], the AUC(0-inf) amounted to 62200 ng·h/mL, the half-life was 2.4 h, the MRT amounted to 4.3 h and the Cmax amounted to 9920 ng/mL. In addition, in data set [2], the Tmax is 2 h.
At PCSK9 protein, `N#Cc1ccc2c(n1)CN(c1ccc(N[C@H]3CC[C@H](Nc4nc5cc(OC(F)F)ccn5n4)C3)nc1)C2=O` [Example 132] had an IC50 of 10 nM. Further, the IC50 in data set [1] was 6500 nM. For the same compound, in data set [2], the AUC(0-inf) is 30600 ng·h/mL, the half-life is 2.9 h, the MRT worked out at 3 h and the Cmax was determined as 8570 ng/mL. Further, the Tmax in data set [2] worked out at 0.5 h.
`O=C1c2ccc(C(F)(F)F)nc2CN1c1ccc(N[C@H]2CC[C@H](Nc3nc4cc(OC(F)F)ccn4n3)C2)nc1` [Example 133] showed a half-maximal inhibitory concentration (IC50) at PCSK9 protein of 7.8 nM. The compound further showed a 50% inhibitory concentration (IC50) in data set [1] of 400 nM. In data set [2], the AUC(0-inf) stood at 86800 ng·h/mL, the half-life was 5 h, the MRT was 5.8 h and the Cmax amounted to 11000 ng/mL. Besides, the time of peak concentration (Tmax) in data set [2] amounted to 2 h.
At PCSK9 protein, `O=C1c2ncc(F)cc2CN1c1cnc(N[C@H]2CC[C@H](Nc3nc4cc(C(F)(F)F)ccn4n3)C2)c(F)c1` [Example 145] had an IC50 of 10.6 nM. This compound also yielded an IC50 in data set [1] of 2900 nM. In addition, in data set [2], the AUC(0-inf) worked out at 22600 ng·h/mL, the half-life was 3.3 h, the mean residence time MRT worked out at 3.1 h and the Cmax stood at 6310 ng/mL. In data set [2], the Tmax stood at 1 h.
For the compound `N#Cc1ccnc2c1C(=O)N(c1ccc(N[C@H]3CC[C@H](Nc4nc5cc(C(F)(F)F)ccn5n4)C3)nc1)C2` [Example 163], the IC50 on PCSK9 protein was found to be 6.3 nM; in data set [1] it was 10800 nM.
